Laboratory results reported in patent US20250346600A1, “TRICYCLIC DERIVATIVES AND RELATED USES” (MOMA Therapeutics, Inc., priority 2023, published 2025).

Legend:
[1] = target: Full length WRN protein (aa 2-1432) (Homo sapiens (Human), UniProt Q14191); experiment: WRN ATPase ADP-Glo biochemical assay, Assay Format A (10 μM ATP); details: 0.25 nM WRN, 100 nM C6.18 ssDNA, 30 min preincubation, read-out: ATPase ADPGlo AC50 (uM)- Assay Format A
Description: Full length Werner helicase construct (Uniprot: Q14191) with an N-terminal FLAG-AVI-TEV tag was expressed using the Sf9 cell/baculovirus expression system. The harvested cell pellet was resuspended and lysed in a glass homogenizer. After insoluble material was removed by centrifugation, the helicase protein was first purified with FLAG affinity resin and then further purified through a size-exclusion chromatography column. Peak fractions containing the purified protein were concentrated, split into aliquots and frozen in liquid nitrogen to be thawed before use. Biochemical Assay Description (ATPase activity)-Assay Format A WRN activity was measured using an ATPase assay. Full length WRN protein (aa 2-1432) (production described separately) was used for the biochemical activity assays. The 39-mer ssDNA “C6.18” [NT] was purchased from IDT and used as a substrate. Quantification of ATP hydrolysis was evaluated using the ADP-Glo assay kit (Promega, Madison, WI). An enzyme titration time-course was performed to determine the optimal assay conditions. […] To evaluate the inhibitory effects of the compounds, 11-point 3-fold serial dilutions were prepared in DMSO. 50 nL of each concentration in duplicate was preincubated for 30 minutes in a 384-well microplate (Greiner #784075) with 5 μL of 0.5 nM WRN in assay buffer. The reaction was initiated by adding 5 μL of 200 nM C6.18 DNA with 20 μM ATP and was allowed to proceed for 30 minutes at room temperature. The reaction was stopped with 10 μL ADP-Glo reagent for 1 hour to remove unreacted ATP. Lastly, 20 μL ATP detection reagent was added and incubated for 1 hour to generate the luminescence signal. Control wells included “high controls” with no inhibition (DMSO, no compound) and “low controls” with maximum inhibition (no WRN). Luminescence was recorded on a PHERAstar (BMG Labtech, Ortenberg, Germany). Data was fit using the “Smart Fit” method within the Genedata Screener Software (Basel, Switzerland) to obtain IC50 values using four-parameter fits. Reported IC50s are the geometric means of at least two independent trials.

HCT116 cells = experiment: HCT116 (MSI) 7 day viability, CellTiter Glo; type: cell-based; details: Homo sapiens, HCT-116, 168 h, 7 days, read-out: HCT116 (MSI) Viability 7 Day Abs AC50
Summary of the method: (§1)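 HCT116 (50 cells/well) or HT29 (500 cells/well) exposed 7 days at 37° C, 5% CO2, to 10-point 3-fold compound dilutions. Viability measured by CellTiter Glo luminescence, background from cell-free wells; IC50 from four-parameter logistic fit, geometric mean of at least 2 replicates.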

HT29 cells = experiment: HT29 (MSS) 7 day viability, CellTiter Glo; type: cell-based; details: Homo sapiens, HT-29, 168 h, 7 days, read-out: HT29 (MSS) Viability 7 Day CTGAbs AC50
Summary of the method: as §1

Full length WRN protein (aa 2-1432), sequence (Q14191 2-1432): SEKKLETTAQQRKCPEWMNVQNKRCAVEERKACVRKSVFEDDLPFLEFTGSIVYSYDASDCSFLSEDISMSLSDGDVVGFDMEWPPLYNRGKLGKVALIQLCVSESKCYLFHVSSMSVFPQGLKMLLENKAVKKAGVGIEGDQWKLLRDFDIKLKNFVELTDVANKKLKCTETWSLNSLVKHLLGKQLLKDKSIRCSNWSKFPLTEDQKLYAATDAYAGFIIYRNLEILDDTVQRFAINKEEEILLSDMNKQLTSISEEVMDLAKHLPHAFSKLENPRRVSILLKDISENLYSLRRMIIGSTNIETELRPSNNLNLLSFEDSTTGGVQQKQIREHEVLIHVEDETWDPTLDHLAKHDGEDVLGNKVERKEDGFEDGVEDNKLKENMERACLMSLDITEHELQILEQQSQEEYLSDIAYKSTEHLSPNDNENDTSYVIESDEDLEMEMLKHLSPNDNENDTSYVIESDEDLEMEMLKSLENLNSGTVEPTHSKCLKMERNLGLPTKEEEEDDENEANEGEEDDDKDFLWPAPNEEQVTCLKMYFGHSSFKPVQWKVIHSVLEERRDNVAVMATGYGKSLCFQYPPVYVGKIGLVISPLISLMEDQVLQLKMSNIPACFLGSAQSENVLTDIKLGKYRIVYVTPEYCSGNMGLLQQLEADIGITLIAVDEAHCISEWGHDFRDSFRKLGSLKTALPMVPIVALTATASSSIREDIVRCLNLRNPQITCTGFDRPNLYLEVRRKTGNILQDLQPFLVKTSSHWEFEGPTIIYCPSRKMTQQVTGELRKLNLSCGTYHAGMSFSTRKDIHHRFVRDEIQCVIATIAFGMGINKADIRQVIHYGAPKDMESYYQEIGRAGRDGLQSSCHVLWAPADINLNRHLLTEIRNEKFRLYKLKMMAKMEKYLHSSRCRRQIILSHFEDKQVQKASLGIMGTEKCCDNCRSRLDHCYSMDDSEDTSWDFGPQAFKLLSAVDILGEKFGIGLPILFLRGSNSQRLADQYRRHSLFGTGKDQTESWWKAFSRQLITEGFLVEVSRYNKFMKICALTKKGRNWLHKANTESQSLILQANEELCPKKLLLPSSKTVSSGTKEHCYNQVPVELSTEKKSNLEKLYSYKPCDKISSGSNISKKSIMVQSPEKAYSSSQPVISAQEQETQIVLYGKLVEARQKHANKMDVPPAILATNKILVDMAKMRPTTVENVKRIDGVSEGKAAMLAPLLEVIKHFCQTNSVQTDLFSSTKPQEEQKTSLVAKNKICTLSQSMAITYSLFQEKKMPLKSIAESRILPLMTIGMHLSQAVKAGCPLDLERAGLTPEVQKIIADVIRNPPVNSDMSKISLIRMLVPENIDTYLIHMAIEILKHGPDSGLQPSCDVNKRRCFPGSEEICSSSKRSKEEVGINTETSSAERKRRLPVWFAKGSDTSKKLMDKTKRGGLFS

SMILES	AC50 [1] [µM]	AC50 (HCT116 cells) [nM]	AC50 (HT29 cells) [nM]
CC(C)c1ccc(-n2nc3c4c2CCN(C(=O)c2ccc(Br)c5[nH]cnc25)C4CN(C(=O)C2=CCC2)CC3)cc1 (stereo not drawn) [Compound 16, (7-bromo-1H-benzo[d]imidazol-4-yl)(7-(cyclobut-1-ene-1-carbonyl)-2-(4-isopropylphenyl)-2,3,4,5a,6,7,8,9-octahydro-5H-1,2,5,7-tetraazabenzo[cd]azulen-5-yl)methanone]	> 0.055	> 1000	> 3000
C=CC(=O)N1CCOCc2nn(-c3ccc(C(C)C)cc3C)c3c2C(C1)N(C(=O)c1ccc(Br)c(O)c1)CC3 (stereo not drawn) [Compound 36, 1-(5-(4-bromo-3-hydroxybenzoyl)-2-(4-isopropyl-2-methylphenyl)-2,4,5,5a,6,8,9,11-octahydro-10-oxa-1,2,5,7-tetraazacyclonona[cd]inden-7(3H)-yl)prop-2-en-1-one]	0.015 to 0.055	500 to 1000	> 3000
C=CC(=O)N1CCc2nn(-c3ccc(C4CCC4)cc3O)c3c2C(C1)N(C(=O)c1cnc(C(F)(F)F)c2[nH]ncc12)CC3 (stereo not drawn) [Compound 151, 1-(2-(4-cyclobutyl-2-hydroxyphenyl)-5-(7-(trifluoromethyl)-1H-pyrazolo[3,4-c]pyridine-4-carbonyl)-2,3,4,5,5a,6,8,9-octahydro-7H-1,2,5,7-tetraazabenzo[cd]azulen-7-yl)prop-2-en-1-one]	< 0.0015	1 to 100	> 3000
C=CC(=O)N1CCOc2nn(-c3ccc(C(C)C)cc3)c3c2C(C1)N(C(=O)c1ccc(Br)c(O)c1)CC3 (stereo not drawn) [Compound 48, 1-(5-(4-bromo-3-hydroxybenzoyl)-2-(4-isopropylphenyl)-2,3,4,5,5a,6,8,9-octahydro-7H-10-oxa-1,2,5,7-tetraazacycloocta[cd]inden-7-yl)prop-2-en-1-one]	0.0015 to 0.005	100 to 250	> 3000

Continued, in another order:

AC50 [1] [µM]	SMILES	AC50 (HCT116 cells) [nM]	AC50 (HT29 cells) [nM]
0.015 to 0.055	C=CC(=O)N1CCc2nn(-c3ccc(C4CC4)cc3)c3c2C(C1)N(C(=O)c1ccc(C#N)nc1)CC3 (stereo not drawn) [Compound 123, 5-(7-acryloyl-2-(4-cyclopropylphenyl)-3,4,5,5a,6,7,8,9-octahydro-2H-1,2,5,7-tetraazabenzo[cd]azulene-5-carbonyl)picolinonitrile]	250 to 500	> 3000
0.015 to 0.055	C=CC(=O)N1CCc2nn(-c3ccc(C4CC4)cc3)c3c2C(C1)N(C(=O)c1ccc(-n2cccn2)nc1)CC3 (stereo not drawn) [Compound 98, 1-(5-(6-(1H-pyrazol-1-yl)nicotinoyl)-2-(4-cyclopropylphenyl)-2,3,4,5,5a,6,8,9-octahydro-7H-1,2,5,7-tetraazabenzo[cd]azulen-7-yl)prop-2-en-1-one]	250 to 500	> 3000
> 0.055	C=CC(=O)N1CCc2nn(-c3ccc(C4CC4)cc3)c3c2C(C1)N(C(=O)c1cc2n(n1)CCN(C)S2(=O)=O)CC3 (stereo not drawn) [Compound 116, 1-(2-(4-cyclopropylphenyl)-5-(2-methyl-1,1-dioxido-3,4-dihydro-2H-pyrazolo[1,5-e][1,2,5]thiadiazine-7-carbonyl)-2,3,4,5,5a,6,8,9-octahydro-7H-1,2,5,7-tetraazabenzo[cd]azulen-7-yl)prop-2-en-1-one]	> 1000	> 3000
0.015 to 0.055	C=CC(=O)N1CCc2nn(-c3ccc(C4CC4)cc3)c3c2C(C1)N(C(=O)c1ccc(C(F)(F)F)nn1)CC3 (stereo not drawn) [Compound 115, 1-(2-(4-cyclopropylphenyl)-5-(6-(trifluoromethyl)pyridazine-3-carbonyl)-2,3,4,5,5a,6,8,9-octahydro-7H-1,2,5,7-tetraazabenzo[cd]azulen-7-yl)prop-2-en-1-one]	500 to 1000	> 3000
> 0.055	C=CC(=O)N1CCc2nn(-c3ccc(C4CC4)cc3)c3c2C(C1)N(C(=O)c1ccc(OCC(F)(F)F)nc1)CC3 (stereo not drawn) [Compound 118, 1-(2-(4-cyclopropylphenyl)-5-(6-(2,2,2-trifluoroethoxy)nicotinoyl)-2,3,4,5,5a,6,8,9-octahydro-7H-1,2,5,7-tetraazabenzo[cd]azulen-7-yl)prop-2-en-1-one]	> 1000	> 3000
